In patent US20110236381A1, “INHIBITION OF INTER-ALPHA TRYPSIN INHIBITOR FOR THE TREATMENT OF AIRWAY DISEASE” (priority 2008, published 2011):
“Also recorded” adds a separate entry of the source.

Assays:
[1] = in vivo; cited from earlier work
C57BL/6J mice = test: Ozone-induced AHR, total lung resistance to methacholine (FlexiVent); type: in vivo; conditions: 50 μl instilled 1 hour before and 23 hours after acute ozone exposure; AHR 24 hours after ozone; vs vehicle
From the text: Exposure Protocol: C57BL/6J, CD44−/−, IaI−/− or HAS2 transgenic mice (mice that overexpress HAS2) were exposed to either Hepa-filtered air (FA) or ozone. Animals were housed in cages with low-endotoxin bedding, and given water and chow ad libitum. Ozone exposures were two parts per million (ppm) for three hours. The selection of ozone concentration levels in the mouse was based on similar biological responses observed in human exposure studies and published deposition fraction data for 03 in rodent models (Wiester et al., Toxicol Appl Pharmacol 96(1):140-146, 1988). Exposures were performed in 55-liter Hinner chambers with individual animal slots. […] Chamber ozone concentration was monitored continuously with a UV light photometer (1003AH, Dasibi, Glendale, Calif.). […]
HA challenge: Sterile, endotoxin-free (0.00008 EU/ml) high molecular weight hyaluronan (HMW-HA) (Healon, AMO, Santa Ana, Calif.) was reconstituted at 0.5 mg/ml in 0.02 M acetate/0.15 M sodium chloride, pH 6.0. […] In some experiments, 50 μl of HMW-HA, sHA, or vehicle were instilled oropharyngeally into isoflurane-anesthetized mice, and AHR was measured invasively 2-4 hours later. In other experiments, 50 μl of HMW-HA or vehicle was instilled 1 hour before and 23 hours after acute ozone exposure, and AHR was measured invasively 24 hours after ozone exposure. […]

CD44-deficient mice = test: HA challenge in CD44-deficient mice, AHR; type: in vivo; conditions: sHA instillation
Protocol: (§1) HA challenge: Sterile, endotoxin-free (0.00008 EU/ml) high molecular weight hyaluronan (HMW-HA) (Healon, AMO, Santa Ana, Calif.) was reconstituted at 0.5 mg/ml in 0.02 M acetate/0.15 M sodium chloride, pH 6.0. For the production of low molecular weight (also known as short-fragment) hyaluronan (sHA), healon was sonicated on ice. Sizes were confirmed by electrophoresis according to known methods (Lee and Cowman Anal Biochem 219(2):278-287, 1994). In some experiments, 50 μl of HMW-HA, sHA, or vehicle were instilled oropharyngeally into isoflurane-anesthetized mice, and AHR was measured invasively 2-4 hours later. In other experiments, 50 μl of HMW-HA or vehicle was instilled 1 hour before and 23 hours after acute ozone exposure, and AHR was measured invasively 24 hours after ozone exposure.
(§2) Airway Physiology: Twenty four hours after the beginning of exposure, tracheas of anesthetized mice (pentobarbital sodium, 60 mg/kg i.p.) were surgically dissected and intubated, mice were paralyzed (pancuronium bromide, […] i.v.) and ventilated with a computer-controlled small animal ventilator (FlexiVent™, SCIREQ, Montreal, Canada) at a tidal volume of 7.5 ml/kg and a positive end-expiratory pressure of 3 cm H2O. Forced oscillation was used for measurements of respiratory mechanics. […]

naive C57BL/6J mice [2] = test: HA challenge: oropharyngeal instillation of hyaluronan into naive mice, AHR measured invasively; type: in vivo; conditions: 50 μl of 0.5 mg/ml oropharyngeal, AHR 2-4 hours later, compared to vehicle
Protocol: as §1, §2

naive C57BL/6J mice [3] = test: Lung lavage cells after sHA instillation; type: in vivo; conditions: compared to vehicle
Protocol: as §1
Whole lung lavage: Whole lung lavage was performed according to previously described methods (Hollingsworth et al., Am J Respir Crit Care Med 170(2):126-132, 2004). Supernatants were stored at −70° C.

Substance | bronchoconstrictive response in exercise-induced asthma [1] | ozone-induced AHR with hyaluronan instilled before and after ozone (C57BL/6J mice) | sHA-induced AHR in CD44-deficient mice compared to C57BL/6 (CD44-deficient mice) | induction of AHR in naive mice (naive C57BL/6J mice [2]) | total cells or cell composition in lung lavage fluid after instillation (naive C57BL/6J mice [3])
high molecular weight hyaluronan [HMW-HA] | attenuate the bronchoconstrictive response | significantly ameliorates AHR; also recorded: significant attenuation of AHR |  |  | 
short-fragment hyaluronan [sHA] |  |  | resistant to sHA-induced AHR | induced AHR | significant changes in total cells or cell composition in the lung lavage fluid were not observed; also recorded: a significant change was not observed in any cell type
